Assays:
[1] = system: muscular-skeletal pain conditions (cervico-cranial syndrome, cervico-brachial syndrome, lumbalgia); conditions: cited from earlier work
[2] = in vitro rate of CO2 absorption by water-soaked paper towel (funnel / oil bolus apparatus); format: physicochemical; conditions: 80-cm^2 area test surface, several tests
Protocol: To determine the inherent rate of absorption and diffusion of CO2 in a “passive” aqueous medium a preliminary in vitro experiment was performed. The apparatus and method employed for measuring the rate of CO2 absorption by a surface is illustrated in FIG. 1. The device was placed on a table top 150, and comprised a source of CO2 in the form of a cylinder 101 and a flow regulator 110, including a pressure regulator 112 and flow meter 113. Polyethylene tubing 115 of approximately 0.2 cm^2 lumen connected the cylinder 101 to a glass funnel 120 having a maximum area of 80 cm^2. An additional length of tubing 125 was used for measurement of changes in gas volume. This gas volume measurement means used in the experiment could be eliminated in a device intended to administer CO2 to a patient's skin surface. The entire system was purged of air by prolonged CO2 flow. The additional length of tubing 125 was purged first, then a bolus of low-volatility (forepump) oil 130 was inserted into its open end and the end plugged. […]
Next, the funnel was placed on test surface 140 of a 0.4-mm thick water-soaked paper towel having about the same thickness as skin. […] The observed initial rate of absorption determined from several such tests fell in the range 0.6-1.2 ml/min, and saturation occurred at 4-10 ml, for the 80-cm^2 area test surface. […]

allergic rhinitis attack = assay: treatment of allergic rhinitis by carbonated water nasal spray; format: in vivo, human; conditions: carbonated water spray and gaseous CO2 infusion used alternately over a day, one subject
From the text: Because of the observed similarity of the physiological effects of gaseous CO2 and a […] solution (carbonated water) applied to the skin, the inventors believed that a […] solution might be effective for treatment of upper respiratory indications for which infusion of gaseous CO2 is effective. With reference to FIG. 5, to test this hypothesis, a 70-ml commercially marketed plastic “squeeze” bottle 510 for dispensing a physiological saline spray was 3⁄4 filled with fresh effervescing carbonated water. The carbonated water spray was then sprayed into the nose of a subject 520 who was suffering a mild allergic rhinitis attack. […] During the course of a day as allergic rhinitis attacks reoccurred, the carbonated water spray and gaseous CO2 infusion were used alternately and their relative effectiveness assessed. […] The disagreeable aspects cited were the discomfort associated with a liquid being sprayed up the nose and the messiness of the effluent liquid from the nose after the spray. Nevertheless, the carbonated nasal spray is a distinct alternative for treatment of the upper respiratory distress indications, and shares many of the advantages of a gaseous CO2 infusion treatment including effectiveness, ease of use, rapid relief on demand, unlimited dose, low cost, and freedom from aftereffects and other contraindications associated with the use of drugs. […]

[3] = system: skin on the right anterior thigh; assay: rate of transcutaneous absorption of gaseous CO2 into a human body (funnel on wet skin); format: in vivo
Protocol: To determine the inherent rate of absorption and diffusion of CO2 in a “passive” aqueous medium a preliminary in vitro experiment was performed. The apparatus and method employed for measuring the rate of CO2 absorption by a surface is illustrated in FIG. 1. The device was placed on a table top 150, and comprised a source of CO2 in the form of a cylinder 101 and a flow regulator 110, including a pressure regulator 112 and flow meter 113. Polyethylene tubing 115 of approximately 0.2 cm^2 lumen connected the cylinder 101 to a glass funnel 120 having a maximum area of 80 cm^2. An additional length of tubing 125 was used for measurement of changes in gas volume. This gas volume measurement means used in the experiment could be eliminated in a device intended to administer CO2 to a patient's skin surface. The entire system was purged of air by prolonged CO2 flow. The additional length of tubing 125 was purged first, then a bolus of low-volatility (forepump) oil 130 was inserted into its open end and the end plugged. The funnel 120 was then purged with its open end resting on a portion of the selected test surface 140 immediately adjacent to the portion to be tested, and with the purge flow escaping at its edge. At zero time the purge flow was terminated, the plug in the tube 125 end was removed and the funnel was slid onto the test portion of the surface without breaking the seal between the funnel edge and the wet surface. The displacement of the oil bolus 130 within the 0.20 cm^2 lumen of the tube 125 was then observed as CO2 gas was removed from the closed system via absorption in the surface 140; i.e., each cm of displacement corresponded to absorption of 0.20 cc of gas by 80 cm^2 of test surface.
An area of skin on the right anterior thigh sufficiently large for two positions of the funnel 120 applicator was washed thoroughly and soaked with water for fifteen minutes. The funnel 120 was purged of air by prolonged CO2 flow (for about 10 minutes) while seated on the wet skin in the upper thigh position 160, and then was slid to the lower thigh position 170 at zero time. […] In other words, it appeared that less than <0.1 ml of gas was absorbed. […] Therefore, the inventors concluded that some quantity of CO2, sufficient to cause the observed vascular effects, must have diffused into the skin. Therefore, the inventors continued with their experiments to determine if a transcutaneous application of CO2 would reduce local pain.

[4] = after subcutaneous injection of 100-200 ml CO2 gas
[5] = of 335 patients treated, 100-200 ml CO2 gas injected under the skin, 10-15 injections over 2-5 weeks

absorbed gas volume at saturation [2]: 4 to 10 mL | initial rate of absorption of gaseous CO2 [2]: 0.6 to 1.2 mL/min | aftereffects ([3]; gaseous CO2 on wet skin): no observed aftereffects | gas absorbed by the skin ([3]; wet skin, 80 cm^2 funnel, about 10 minutes, several tests): < 0.1 mL
SMILES: O=C=O [CO2, carbon dioxide]
diameter of gas emphysemum at injection site [1, 4]: ~8 cm | skin reaction at the injection site [1, 4]: mild hyperemia | time for gas emphysemum and hyperemia to disappear after the injection [1, 4]: 3 to 5 min | patients improved with some remaining distress [1, 5]: 157 | patients who became difficulty-free or were substantially improved [1, 5]: 171 | patients with no improvement [1, 5]: 7 | number of treatments after which improvement of the indicated disorder occurred ([1]; subcutaneous injection of 100-200 ml CO2 gas daily or twice-weekly): 4-5 treatments | relative effectiveness for relief and suppression of allergic rhinitis symptoms (allergic rhinitis attack): equally effective | skin reaction over region in contact with CO2 ([3]; after about 10 minutes contact with gaseous CO2): a hyperemia was observed | time for reddening to develop in contact with CO2 ([3]; gaseous CO2 on wet skin): three to five | time for reddening to subside after removal of the CO2 ([3]; gaseous CO2 on wet skin): a similar period

From patent publication US6652479B2, “Method and apparatus for transcutaneous infusion of carbon dioxide for local relief of pain and other ailments” (Capnia, Inc., priority 2000, dated 2003)
